Results from PubChem BioAssay AID2060602 (Molecular Pharmacology Branch, DTP, NCI, 2025).

Tested on: 648629-189-R-J1-PDC complex spheroids viability
Experiment: Anticancer human tumor 648629-189-R-J1-PDC patient-derived bladder carcinoma cell line growth inhibition [CLK]
Settings: for IC50: curve of first compound; for viability, T/C: stronger effect = lower value
Text: A high-throughput screen of multi-cell type tumor spheroids was designed to identify active combinations of […] and targeted small molecules. Complex spheroids include a stromal component modeled by human endothelial cells (HUVEC) and fibroblasts modeled by human mesenchymal stem cells (MSCs). The concentration ranges selected for each drug and investigational agent were based upon clinically achievable concentrations if the clinical Cmax of the agent was known.
Compounds. The drugs and investigational agents: cirtuvivint (SM08502; NSC835563), CC-671 (NSC850746), vemurafenib (NSC761431), tapotoclax (NSC804041), sotorasib (NSC818433), adagrasib (NSC831453), MRTX-1133 (NSC836407), BAY2416964 (NSC825713), copanlisib (NSC816437), inavolisib (NSC800729), abemaciclib (NSC768073), osimertinib (NSC779217), entinostat (NSC756642), eltanexor (KPT-8602, NSC794443), venetoclax (NSC766270), ceralasertib (NSC777638), bortezomib (NSC756655), olaparib (NSC753686), talazoparib (NSC767125), alisertib (NSC759677), peposertib (NSC802822), gemcitabine (NSC613327), 5-fluorouracil (NSC19893), SN-38 (NSC673596), oxaliplatin (NSC266046), paclitaxel (NSC125973), and doxorubicin (NSC123127), were obtained from the National Cancer Institute (NCI) Developmental Therapeutics Program Chemical Repository. The FDA-approved anticancer drug set is available from the Developmental Therapeutics Program at https://dtp.cancer.gov/organization/dscb/obtaining/available plates.htm. […] The stock solutions were prepared in dimethyl sulfoxide (DMSO, Sigma-Aldrich, St. Louis, MO, cat. D2650), except for the platinum complexes which were prepared in saline (Quality Biological, Gaithersburg, MD, cat. 114-055-101), at 800-fold the tested concentration and stored at -70 degrees C prior to their use. All drugs and investigational agents were tested over a range starting from a high concentration at or near the clinical Cmax and decreasing in half-log increments. If the clinical Cmax for an agent had not been determined, the highest concentration tested was 10 microM.
Cell Culture. All cells were maintained in an incubator at 37 degrees C and 5% CO2 with 95% humidity. The PDC lines were cultured according to standard operating procedures established by the NCI PDMR. Briefly, all PDCs were thawed and cultured in Matrigel-coated flasks prepared with a working solution of 1X Ham's F-12 nutrient mix, without supplementation (Invitrogen, Waltham, MA, cat. 11765054), 100 U/mL penicillin-streptomycin (Invitrogen, cat. 15140122), and 2.5% Matrigel (Corning Inc., Corning, NY, cat. 354248) for the first three passages. The 947758-054-R-J2-PDC line was cultured in 6B/Colon 1A media, which includes advanced DMEM/F-12 (Thermo Fisher Scientific, cat. 12634028), 10 mM HEPES (Thermo Fisher Scientific, cat. 15630080), 1X GlutaMAX supplement (Thermo Fisher Scientific, cat. 35050061), 0.1 mg/mL primocin (InvivoGen, cat. ant-pm-2), 10% defined fetal bovine serum, heat inactivated (HyClone Laboratories Inc., cat. SH30070.03HI), 1.25 mM N-Acetyl-L-cysteine (Sigma-Aldrich, cat. A9165), 10 mM nicotinamide (Sigma-Aldrich, cat. N0636), 1X B-27 supplement (Thermo Fisher Scientific, cat. 17504044), 1X N-2 supplement (Thermo Fisher Scientific, cat. 17502048), and 10 microM Y-27632 dihydrochloride (Tocris Bioscience, cat. 1254). The 876862-298-R-J1-PDC was cultured in 6E media, which includes all 6B/Colon 1A media components plus 50% L-WRN conditioned media (ATCC, cat. CRL-3276), 50 ng/mL recombinant human EGF recombinant protein (hEGF; Thermo Fisher Scientific, cat. PHG0311), 10 ng/mL recombinant human fibroblast growth factor 10 (hGFG-10; PeproTech, cat. 100-26), 1 ng/mL recombinant human fibroblast growth factor 2 (hFGF-2; PeproTech, cat. 100-18B), and 1 µM prostaglandin E2 (PGE2; Tocris, cat. 2296). The 227483-062-R1-J1-PDC line was cultured in Panc media, containing all 6E components except hFGF-2, with the addition of 500 nM SB-431542 (Selleckchem, cat. S1067) and 10 nM gastrin (Tocris, cat. 3006). […]

[1] = second compound 0.0316 µM, first compound 0.0316 µM
[2] = second compound 0.0316 µM, first compound 0.1 µM
[3] = second compound 0.0316 µM, first compound 0.316 µM
[4] = second compound 0.0316 µM, first compound 1 µM
[5] = second compound 0.1 µM, first compound 0.0316 µM
[6] = second compound 0.1 µM, first compound 0.1 µM
[7] = second compound 0.1 µM, first compound 0.316 µM
[8] = second compound 0.1 µM, first compound 1 µM
[9] = second compound 0.316 µM, first compound 0.0316 µM
[10] = second compound 0.316 µM, first compound 0.1 µM
[11] = second compound 0.316 µM, first compound 0.316 µM
[12] = second compound 0.316 µM, first compound 1 µM
[13] = second compound 1 µM, first compound 0.0316 µM
[14] = second compound 1 µM, first compound 0.1 µM
[15] = second compound 1 µM, first compound 0.316 µM
[16] = second compound 1 µM, first compound 1 µM
[17] = second compound 3.16 µM, first compound 0.0316 µM
[18] = second compound 3.16 µM, first compound 0.1 µM
[19] = second compound 3.16 µM, first compound 0.316 µM
[20] = second compound 3.16 µM, first compound 1 µM
[21] = second compound 10 µM, first compound 0.0316 µM
[22] = second compound 10 µM, first compound 0.1 µM
[23] = second compound 10 µM, first compound 0.316 µM
[24] = second compound 10 µM, first compound 1 µM
[25] = second compound 0.0316 µM, first compound 0.00316 µM
[26] = second compound 0.0316 µM, first compound 0.01 µM
[27] = second compound 0.1 µM, first compound 0.00316 µM
[28] = second compound 0.1 µM, first compound 0.01 µM
[29] = second compound 0.316 µM, first compound 0.00316 µM
[30] = second compound 0.316 µM, first compound 0.01 µM
[31] = second compound 1 µM, first compound 0.00316 µM
[32] = second compound 1 µM, first compound 0.01 µM
[33] = second compound 3.16 µM, first compound 0.00316 µM
[34] = second compound 3.16 µM, first compound 0.01 µM
[35] = second compound 10 µM, first compound 0.00316 µM
[36] = second compound 10 µM, first compound 0.01 µM
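For viability, T/C in this document: drug exposure lasted seven days before viability readout; 100% = DMSO vehicle control wells.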

Compound CC(Nc1ccc2c(c1)OCCn1cc(N3C(=O)OCC3C(F)F)nc1-2)C(N)=O (stereo unspecified) + CN1CCN(c2cc(C(=O)Nc3cc4cc(-c5cnn(C)c5)ccc4cn3)ccn2)CC1 has an IC50 (second compound 0.0316 µM) of 8560 nM, an IC50 (second compound 0.1 µM) of 8740 nM and an IC50 (second compound 0.316 µM) of less than 31.6 nM. It also gave an IC50 (second compound 1 µM) of less than 31.6 nM, an IC50 (second compound 3.16 µM) of less than 31.6 nM and an IC50 (second compound 10 µM) of less than 31.6 nM. The viability, T/C [1] was 114%, the viability, T/C [2] was 111% and the viability, T/C [3] was 97.6%. For the same compound, the viability, T/C [4] was 84.2%, the viability, T/C (second compound 0.0316 µM, first compound 3.16 µM) was 77.2% and the viability, T/C (second compound 0.0316 µM, first compound 10 µM) was 44.8%. The viability, T/C [5] was 105%, the viability, T/C [6] was 100% and the viability, T/C [7] was 90.2%. It also gave a viability, T/C [8] of 82.8%, a viability, T/C (second compound 0.1 µM, first compound 3.16 µM) of 68.8% and a viability, T/C (second compound 0.1 µM, first compound 10 µM) of 46.8%. It also gave a viability, T/C [9] of 44.5%, a viability, T/C [10] of 44.2% and a viability, T/C [11] of 42.5%. It also gave a viability, T/C [12] of 38.4%, a viability, T/C (second compound 0.316 µM, first compound 3.16 µM) of 30.9% and a viability, T/C (second compound 0.316 µM, first compound 10 µM) of 28.1%. For the same compound, the viability, T/C [13] was 0.75%, the viability, T/C [14] was 0.85% and the viability, T/C [15] was 0.93%. It also gave a viability, T/C [16] of 1.18%, a viability, T/C (second compound 1 µM, first compound 3.16 µM) of 0.5% and a viability, T/C (second compound 1 µM, first compound 10 µM) of 0.59%. For the same compound, the viability, T/C [17] was 0.08%, the viability, T/C [18] was 0.14% and the viability, T/C [19] was 0.16%. For the same compound, the viability, T/C [20] was 0.13%, the viability, T/C (second compound 3.16 µM, first compound 3.16 µM) was 1.1% and the viability, T/C (second compound 3.16 µM, first compound 10 µM) was 0.14%. The viability, T/C [21] was 0.1%, the viability, T/C [22] was 0.13% and the viability, T/C [23] was 0.17%. For the same compound, the viability, T/C [24] was 0.22%, the viability, T/C (second compound 10 µM, first compound 3.16 µM) was 0.22% and the viability, T/C (second compound 10 µM, first compound 10 µM) was 0.2%.

CCN1CCN(Cc2ccc(Nc3ncc(F)c(-c4cc(F)c5nc(C)n(C(C)C)c5c4)n3)nc2)CC1 + CN1CCN(c2cc(C(=O)Nc3cc4cc(-c5cnn(C)c5)ccc4cn3)ccn2)CC1 gave an IC50 (second compound 0.0316 µM) greater than 1000 nM, an IC50 (second compound 0.1 µM) greater than 1000 nM and an IC50 (second compound 0.316 µM) of less than 3.16 nM. It also gave an IC50 (second compound 1 µM) of less than 3.16 nM, an IC50 (second compound 3.16 µM) of less than 3.16 nM and an IC50 (second compound 10 µM) of less than 3.16 nM. It also gave a viability, T/C [25] of 108%, a viability, T/C [26] of 101% and a viability, T/C [1] of 101%. It also gave a viability, T/C [2] of 127%, a viability, T/C [3] of 122% and a viability, T/C [4] of 123%. It also gave a viability, T/C [27] of 104%, a viability, T/C [28] of 104% and a viability, T/C [5] of 102%. The viability, T/C [6] was 101%, the viability, T/C [7] was 108% and the viability, T/C [8] was 101%. For the same compound, the viability, T/C [29] was 37%, the viability, T/C [30] was 48.5% and the viability, T/C [9] was 41.7%. For the same compound, the viability, T/C [10] was 50.6%, the viability, T/C [11] was 47.3% and the viability, T/C [12] was 40.4%. It also gave a viability, T/C [31] of 0.42%, a viability, T/C [32] of 0.24% and a viability, T/C [13] of 0.61%. The viability, T/C [14] was 0.35%, the viability, T/C [15] was 0.54% and the viability, T/C [16] was 0.32%. The viability, T/C [33] was 0.14%, the viability, T/C [34] was 0.26% and the viability, T/C [17] was 0.49%. For the same compound, the viability, T/C [18] was 0.15%, the viability, T/C [19] was 0.16% and the viability, T/C [20] was 0.16%. The viability, T/C [35] was 0.21%, the viability, T/C [36] was 0.21% and the viability, T/C [21] was 0.17%. It also gave a viability, T/C [22] of 0.16%, a viability, T/C [23] of 1.22% and a viability, T/C [24] of 1.51%.

COc1c(OCCCN2CCOCC2)ccc2c3n(c(=NC(=O)c4cnc(N)nc4)nc12)CCN3 + CN1CCN(c2cc(C(=O)Nc3cc4cc(-c5cnn(C)c5)ccc4cn3)ccn2)CC1 gave an IC50 (second compound 0.0316 µM) of 91.3 nM, an IC50 (second compound 0.1 µM) of 73.3 nM and an IC50 (second compound 0.316 µM) of less than 3.16 nM. For the same compound, the IC50 (second compound 1 µM) was less than 3.16 nM, the IC50 (second compound 3.16 µM) was less than 3.16 nM and the IC50 (second compound 10 µM) was less than 3.16 nM. The viability, T/C [25] was 114%, the viability, T/C [26] was 102% and the viability, T/C [1] was 88.8%. For the same compound, the viability, T/C [2] was 46.6%, the viability, T/C [3] was 18.3% and the viability, T/C [4] was 12.1%. The viability, T/C [27] was 118%, the viability, T/C [28] was 101% and the viability, T/C [5] was 72.4%. For the same compound, the viability, T/C [6] was 43%, the viability, T/C [7] was 18.3% and the viability, T/C [8] was 10.7%. For the same compound, the viability, T/C [29] was 45.6%, the viability, T/C [30] was 43.8% and the viability, T/C [9] was 37.4%. The viability, T/C [10] was 22.5%, the viability, T/C [11] was 11% and the viability, T/C [12] was 5.26%. It also gave a viability, T/C [31] of 1.95%, a viability, T/C [32] of 0.55% and a viability, T/C [13] of 0.91%. It also gave a viability, T/C [14] of 0.76%, a viability, T/C [15] of 0.14% and a viability, T/C [16] of 0.11%. The viability, T/C [33] was 0.14%, the viability, T/C [34] was 0.49% and the viability, T/C [17] was 0.15%. The viability, T/C [18] was 0.11%, the viability, T/C [19] was 0.11% and the viability, T/C [20] was 0.58%. For the same compound, the viability, T/C [35] was 0.07%, the viability, T/C [36] was 0.14% and the viability, T/C [21] was 0.42%. For the same compound, the viability, T/C [22] was 0.17%, the viability, T/C [23] was 1.19% and the viability, T/C [24] was 1.16%.
